Data published in patent publication US6525022B1, “Receptor specific atrial natriuretic peptides” (Genentech, Inc., priority 1993, dated 2003).
Where two headings read alike, the source gives them in different places. Where a SMILES comes first, the peptide text is derived from it. Bridges are numbered along the chain shown (N, C = ends).

Columns and labels:
[1] = biological target: T1, human natriuretic peptide receptor-A expressed in 293 cells (Homo sapiens, UniProt P16066); test: cGMP production in 293 cells expressing hNPR-A; assay type: cell-based
T1 construct: expressed in transfected cells
T1 sequence (P16066 33-1061): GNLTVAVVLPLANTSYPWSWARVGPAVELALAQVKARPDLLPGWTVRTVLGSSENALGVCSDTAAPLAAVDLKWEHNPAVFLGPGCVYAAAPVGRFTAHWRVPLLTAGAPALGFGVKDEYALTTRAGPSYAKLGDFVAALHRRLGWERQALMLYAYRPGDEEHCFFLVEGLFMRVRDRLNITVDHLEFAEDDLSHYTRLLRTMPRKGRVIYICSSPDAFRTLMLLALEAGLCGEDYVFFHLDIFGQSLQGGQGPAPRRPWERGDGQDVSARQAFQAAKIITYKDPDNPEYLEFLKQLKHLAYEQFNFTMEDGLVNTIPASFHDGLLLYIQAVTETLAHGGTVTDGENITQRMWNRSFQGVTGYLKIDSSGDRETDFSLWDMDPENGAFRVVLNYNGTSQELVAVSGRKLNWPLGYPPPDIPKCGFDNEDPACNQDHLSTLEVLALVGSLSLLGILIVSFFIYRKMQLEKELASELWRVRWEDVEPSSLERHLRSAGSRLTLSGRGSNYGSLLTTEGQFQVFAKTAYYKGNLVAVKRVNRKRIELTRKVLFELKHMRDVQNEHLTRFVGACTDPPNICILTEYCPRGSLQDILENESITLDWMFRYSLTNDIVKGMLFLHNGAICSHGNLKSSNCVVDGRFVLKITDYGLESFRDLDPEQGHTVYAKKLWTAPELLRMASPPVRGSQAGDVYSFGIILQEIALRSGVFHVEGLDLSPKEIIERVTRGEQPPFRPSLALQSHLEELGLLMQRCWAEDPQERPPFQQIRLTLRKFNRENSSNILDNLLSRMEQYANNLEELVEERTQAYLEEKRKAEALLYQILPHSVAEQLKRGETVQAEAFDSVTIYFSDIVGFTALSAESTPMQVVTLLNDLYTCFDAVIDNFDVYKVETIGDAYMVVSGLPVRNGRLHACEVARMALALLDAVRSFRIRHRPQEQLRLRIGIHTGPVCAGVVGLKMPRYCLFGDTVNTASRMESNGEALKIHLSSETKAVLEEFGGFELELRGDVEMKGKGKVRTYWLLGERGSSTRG
Description: Stable 293 cell lines were maintained in glycine free F-12/Dulbecco's minimal essential medium (50/50, v/v) with 10% dialyzed fetal calf serum, 10 mM Hepes, […] of G418 (Geneticin, GIBCO/BRL), pH 7.2, in a humidified incubator at 37° C. with 7% CO2, 93% air. Cells were passaged using 136.8 mM NaCL, 2.6 mM KCl, 7.9 mM Na2HPO4, 1.4 mM KH2PO4, pH 7.2 (PBS) with 0.5 mM EDTA. For concentration-response experiments log phase cultures of 293 cell lines were passaged to 12 well plates at a density of 2.5×10^5 cells/well. After 48 hours cultures were approximately 50% confluent, and were used for stimulation of cGMP production. Peptide treatments were carried out essentially as described by Lowe and Fendly (1992). Briefly, dried peptide aliquots were resuspended in 0.1% (v/v) acetic acid to a stock concentration of 50 μM, and diluted to 1 μM in F-12/Dulbecco's minimal essential medium (50/50, v/v) with 25 mM Hepes, 0.1% (w/v) bovine serum albumin, 0.1 mM isobutylmethylxanthine at pH 7.2 (stimulation medium). Five-fold serial dilutions were prepared in stimulation medium using polypropylene tubes, then prewarmed to 37° C. before use. Cell culture medium was aspirated prior to adding 0.5 ml of stimulation medium plus peptides to monolayer cultures for 10 minutes at 37° C. Reactions were stopped by addition of 0.5 ml of ice cold 12% trichloroacetic acid to give a final volume of 1 ml. Culture plates were frozen on dry ice and stored at −20° C. prior to assay. For cGMP measurements samples were thawed at room temperature, and processed as described by Koller et al., Science 252:120-123 (1991), for cGMP radioimmunoassay (Biomedical Technologies, Inc). All stimulations were performed in triplicate, and samples were measured in duplicate for cGMP by radioimmumoassay. Predicted peptide concentrations were corrected based on quantitative amino acid analysis of duplicate samples from the same set of peptide aliquots used for the stimulation experiments.
Data analysis. The competition binding curves and cGMP production dose responses were analyzed by the four-parameter logistic equation with the KaleidaGraph™ program (Synergy Software, PA) to obtain estimates of the IC50 or EC50 values. The non linear least-squares curve fitting program SCATPLOT was used to analyze the competition binding curves according to a one-site or two-site binding model for competitor. A two-site binding model is reported when the fit to the data was statistically better (p<0.05) than a one-site fit.

[2] = biological target: human NEP (hNEP), endopeptidase 24.11 (Homo sapiens, UniProt P08473); test: Degradation of ANF variants by human NEP, half-life by HPLC
Sequence of human NEP (hNEP), endopeptidase 24.11 (P08473 whole entry): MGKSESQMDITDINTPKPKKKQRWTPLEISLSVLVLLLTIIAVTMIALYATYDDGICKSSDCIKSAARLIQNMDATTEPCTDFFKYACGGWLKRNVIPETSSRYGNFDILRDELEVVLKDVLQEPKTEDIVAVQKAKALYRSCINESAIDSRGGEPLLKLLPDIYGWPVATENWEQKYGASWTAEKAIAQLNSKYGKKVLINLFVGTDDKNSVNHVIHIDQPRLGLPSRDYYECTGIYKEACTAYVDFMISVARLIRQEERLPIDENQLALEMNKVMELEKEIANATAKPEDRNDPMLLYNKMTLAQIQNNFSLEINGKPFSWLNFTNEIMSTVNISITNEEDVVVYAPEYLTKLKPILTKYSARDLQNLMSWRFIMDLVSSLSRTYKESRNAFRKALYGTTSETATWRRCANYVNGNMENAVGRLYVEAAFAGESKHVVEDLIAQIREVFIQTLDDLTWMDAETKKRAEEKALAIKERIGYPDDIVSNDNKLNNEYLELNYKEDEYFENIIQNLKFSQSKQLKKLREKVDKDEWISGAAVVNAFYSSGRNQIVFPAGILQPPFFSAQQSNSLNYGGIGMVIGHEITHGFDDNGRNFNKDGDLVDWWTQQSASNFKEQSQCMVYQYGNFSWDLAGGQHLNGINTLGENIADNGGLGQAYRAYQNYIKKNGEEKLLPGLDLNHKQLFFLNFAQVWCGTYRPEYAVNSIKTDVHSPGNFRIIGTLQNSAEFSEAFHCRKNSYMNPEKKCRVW

[3] = isolated human NEP (endopeptidase 24.11) in HEPES buffer, Half-Life (min.), FIG. 7: ANF variants 32 nM/ml, NEP 0.45 μg/ml

Potency in cGMP production compared with rat ANP [1]	Stimulation of cGMP production (agonist efficacy) [1]	half-life at 32 nM/ml [2, 3] [h]	SMILES	half-life at 32 nM/ml [2] [h]
potency very similar to rat ANP	full agonists	5.57	CC[C@H](C)[C@@H]1NC(=O)[C@H](CCCNC(=N)N)NC(=O)[C@H](CC(=O)O)NC(=O)[C@H]([C@@H](C)CC)NC(=O)[C@H](CO)NC(=O)CNC(=O)[C@H]([C@@H](C)O)NC(=O)[C@H](Cc2ccccc2)NC(=O)[C@@H](NC(=O)[C@H](CO)NC(=O)[C@H](CO)NC(=O)[C@H](CCCNC(=N)N)NC(=O)[C@H](CCCNC(=N)N)NC(=O)[C@H](CC(C)C)NC(=O)[C@@H](N)CO)CSSC[C@@H](C(=O)N[C@@H](CC(N)=O)C(=O)N[C@@H](CO)C(=O)N[C@@H](Cc2ccccc2)C(=O)N[C@@H](CCCNC(=N)N)C(=O)N[C@@H](Cc2ccc(O)cc2)C(=O)O)NC(=O)CNC(=O)[C@H](CC(C)C)NC(=O)CNC(=O)[C@H](CO)NC(=O)[C@H](CCC(N)=O)NC(=O)[C@H](C)NC(=O)[C@H](CCCNC(=N)N)NC1=O [ANF 27]	
potency very similar to rat ANP	full agonists	39.9	CC[C@H](C)[C@@H]1NC(=O)[C@H](CCCNC(=N)N)NC(=O)[C@H](CC(=O)O)NC(=O)[C@H]([C@@H](C)CC)NC(=O)[C@H](CO)NC(=O)CNC(=O)[C@H]([C@@H](C)O)NC(=O)[C@H](Cc2ccccc2)NC[C@@H](NC(=O)[C@H](CO)NC(=O)[C@H](CO)NC(=O)[C@H](CCCNC(=N)N)NC(=O)[C@H](CCCNC(=N)N)NC(=O)[C@H](CC(C)C)NC(=O)[C@@H](N)CO)CSSC[C@@H](C(=O)N[C@@H](CC(N)=O)C(=O)N[C@@H](CO)C(=O)N[C@@H](Cc2ccccc2)C(=O)N[C@@H](CCCNC(=N)N)C(=O)N[C@@H](Cc2ccc(O)cc2)C(=O)O)NC(=O)CNC(=O)[C@H](CC(C)C)NC(=O)CNC(=O)[C@H](CO)NC(=O)[C@H](CCC(N)=O)NC(=O)[C@H](C)NC(=O)[C@H](CCCNC(=N)N)NC1=O [ANF 84]	

SMILES	Potency in cGMP production compared with rat ANP [1]	Stimulation of cGMP production (agonist efficacy) [1]	half-life at 32 nM/ml [2, 3] [h]	half-life at 32 nM/ml [2] [h]
CC[C@H](C)[C@@H]1NC(=O)[C@H](CCCNC(=N)N)NC(=O)[C@H](CC(=O)O)NC(=O)[C@H]([C@@H](C)CC)NC(=O)[C@H](CO)NC(=O)CNC(=O)[C@H]([C@@H](C)O)NC(=O)[C@H](Cc2ccccc2)NC(=O)[C@@H](NC(=O)[C@H](CO)NC(=O)[C@H](CO)NC(=O)[C@H](CCCNC(=N)N)NC(=O)[C@H](CCCNC(=N)N)NC(=O)[C@H](CC(C)C)NC(=O)[C@H](CO)NC(=O)[C@H](CCCNC(=N)N)NC(=O)[C@@H]2CCCN2C(=O)[C@H](C)NC(=O)[C@@H](N)[C@@H](C)O)CSSC[C@@H](C(=O)N[C@@H](CC(N)=O)C(=O)N[C@@H](CO)C(=O)N[C@@H](Cc2ccccc2)C(=O)N[C@@H](CCCNC(=N)N)C(=O)N[C@@H](Cc2ccc(O)cc2)C(=O)O)NC(=O)CNC(=O)[C@H](CC(C)C)NC(=O)CNC(=O)[C@H](CO)NC(=O)[C@H](CCC(N)=O)NC(=O)[C@H](C)NC(=O)[C@H](CCCNC(=N)N)NC1=O [ANF 76] (H-TAPRSLRRSSCFTGSIDRIRAQSGLGCNSFRY-OH; disulfide 11-27; C-terminus assumed)	potency very similar to rat ANP	full agonists		23.5
